Patent US12030893B2, “Near-infrared nerve-sparing benzo[c]phenoxazine fluorophores” (OREGON HEALTH & SCIENCE UNIVERSITY, priority 2018, dated 2024)

What was measured:
[1] = system: murine brachial plexus and sciatic nerves; test: In vivo nerve-specificity screening via direct/topical administration; design: species or system mice; details: 500 μM in co-solvent formulation, 100 μL incubated 5 minutes on exposed nerve, imaged 30 minutes after staining; selected for further systemic screening
Experimental: Each compound was screened for its tissue-specificity using a previously published direct/topical administration strategy in murine brachial plexus and sciatic nerves.^1 Each compound from the benzo[c]phenoxazine library was formulated in the previously utilized co-solvent formulation (10% DMSO, 5% Kolliphor, 65% serum and 20% phosphate buffered saline) at 500 μM. 100 μL of the formulated Oxazine were incubated on the exposed brachial plexus or sciatic nerve for 5 minutes. The fluorophore containing solution was removed and the area was irrigated with saline 18 times to remove any unbound fluorophore. Co-registered fluorescence and color images were collected of each stained area 30 minutes after benzo[c]phenoxazine direct/topical administration using a custom built macroscopic imaging system with 710/75 nm excitation and 810 nm longpass emission filters. Custom written MatLab code was used to analyze the tissue specific fluorescence where regions of interest were selected on the nerve, muscle, cut muscle and adipose tissue using the white light images. These regions of interest were then analyzed on the co-registered matched fluorescence images permitting assessment of the nerve-to-muscle, nerve-to-cut muscle, and nerve-to-adipose ratios in blinded manner.
(§1) In vivo nerve-specificity screening of the benzo[c]phenoxazine derivative library. Each compound was screened for its tissue-specificity using a direct administration strategy (Barth & Gibbs, Theranostics 7, 573-593 (2017)) where nerve contrast was examined in murine brachial plexus and sciatic nerves. The benzo[c]phenoxazine derivatives were solubilized for in vivo use in the previously described co-solvent formulation (Gibbs-Strauss et al., Molecular imaging 10, 91-101 (2011)). The previously optimized staining procedure was utilized (Gibbs et al., PloS one 8, e73493 (2013)), which is described briefly as follows. The brachial plexus and sciatic nerves were surgically exposed by removal of overlaying adipose and muscle tissues. The benzo[c]phenoxazine compound was formulated at 500 μM in the co-solvent formulation and 100 μL was incubated on the exposed brachial plexus or sciatic nerve for 5 minutes. The fluorophore containing solution was removed and the area was irrigated with saline nine times, followed by a five-minute incubation with blank formulation and then irrigation with saline nine more times to remove any unbound fluorophore. Images were acquired 30 minutes following completion of staining. Unstained nerve sites were used for all control images to quantify autofluorescence. Each benzo[c]phenoxazine derivative was screened in n=3 mice or 6 nerve sites/fluorophore. The quantified tissue fluorescence intensities following direct administration of the fluorophores were used to calculate nerve-to-muscle, nerve-to-cut muscle, and nerve-to-adipose ratios as metrics of nerve contrast. […] Uninjected animals were used for all control images to quantify autofluorescence. Similarly to quantification protocol for the direct administration, the quantified tissue fluorescence intensities following systemic administration of the fluorophores were used to calculate nerve-to-muscle and nerve-to-adipose ratios as metrics of nerve contrast. […]
Intraoperative fluorescence imaging systems. A custom-built small animal imaging system capable of real-time color and fluorescence imaging was used to acquire in vivo rodent images (Hackman et al., Molecular pharmaceutics (2015)). […]

[2] = system: murine brachial plexus and sciatic nerves; test: In vivo nerve-specificity screening via systemic administration; design: species or system mice; details: 500 nmol intravenously in co-solvent formulation; sacrificed at 0.5 h, 1 h, 2 h, 4 h
Experimental: Each compound was screened for its tissue-specificity using a previously published systemic administration strategy in murine brachial plexus and sciatic nerves.^1 Each compound from the benzo[c]phenoxazine library was formulated in the previously utilized co-solvent formulation (10% DMSO, 5% Kolliphor, 65% serum and 20% phosphate buffered saline) at 2.5 mM. 200 μL of the formulated fluorophore was administered intravenously before exposing the brachial plexus and sciatic nerves. Co-registered fluorescence and color images were collected of each nerve site using a custom built macroscopic imaging system with 710/75 nm excitation and 810 nm longpass emission filters. Custom written MatLab code was used to analyze the tissue specific fluorescence where regions of interest were selected on the nerve, muscle and adipose tissue using the white light images. These regions of interest were then analyzed on the co-registered matched fluorescence images permitting assessment of the nerve to muscle and nerve to adipose ratios in blinded manner.
as §1, with “The brachial plexus and sciatic nerves were surgically exposed by removal of overlaying adipose and muscle tissues. The benzo[c]phenoxazine compound was formulated at 500 μM in the co-solvent formulation and 100 μL was incubated on the exposed brachial plexus or sciatic nerve for 5 minutes. The fluorophore containing solution was removed and the area was irrigated with saline nine times, followed by a five-minute incubation with blank formulation and then irrigation with saline nine more times to remove any unbound fluorophore. Images were acquired 30 minutes following completion of staining.” left out, “Each benzo[c]phenoxazine derivative was screened in n=3 mice or 6 nerve sites/fluorophore.” left out
Intraoperative fluorescence imaging systems. A custom-built small animal imaging system capable of real-time color and fluorescence imaging was used to acquire in vivo rodent images (Hackman et al., Molecular pharmaceutics (2015)). Briefly, the imaging system consisted of a QImaging EXi Blue monochrome camera (Surrey, British Columbia, CA) for fluorescence detection with a removable Bayer filter for collection of co-registered color and fluorescence images. […]

[3] = longest among reported nerve-specific fluorophores; cited from earlier work

| Structure (SMILES) | outcome of nerve-specificity screening (nerve-to-muscle, nerve-to-cut muscle, nerve-to-adipose ratios) following direct administration [1] | outcome of nerve-specificity screening (nerve-to-muscle, nerve-to-adipose ratios) following systemic administration [2] | emission wavelength maximum [3] [nm] |
| --- | --- | --- | --- |
| CCN(CC)c1ccc2c3c(ccc2c1)N=c1cc2c(cc1O3)=NCCC2 [LGW07-14, 3-(diethylamino)-10,11-dihydro-9H-benzo[h]pyrido[3,2-b]phenoxazin-12-ium] | lead candidates | selected as lead benzo[c]phenoxazine nerve-specific fluorophores | – |
| CC/N=c1/cc2oc3cc(NCC)c(C)cc3nc-2cc1C [Oxazine 4] | – | – | 635 |
| CC/N=c1/cc2oc3c(ccc4cc(N(CC)CC)ccc43)nc-2c(C)c1 [LGW08-46, (E)-N-(3-(diethylamino)-8-methyl-10H-benzo[c]phenoxazin-10-ylidene)ethanaminium] | lead candidates | selected as lead benzo[c]phenoxazine nerve-specific fluorophores | – |
| CC/N=c1/cc2oc3c(ccc4cc(N(CC)CC)ccc43)nc-2cc1C [LGW 05-25, (Z)—N-(3-(diethylamino)-9-methyl-10H-benzo[c]phenoxazin-10-ylidene)ethanaminium] | lead candidates | selected as lead benzo[c]phenoxazine nerve-specific fluorophores | – |
| CC/N=c1\ccc2nc3ccc4cc(N(CC)CC)ccc4c3oc-2c1C [LGW08-35, (E)-N-(3-(diethylamino)-11-methyl-10H-benzo[c]phenoxazin-10-ylidene)ethanaminium] | lead candidates | selected as lead benzo[c]phenoxazine nerve-specific fluorophores | – |
| CCN(CC)c1ccc2c(ccc3nc4ccc(=[N+](C)C)cc-4oc32)c1 [LGW07-92, N-(3-(diethylamino)-10H-benzo[c]phenoxazin-10-ylidene)-N-methylmethanaminium] | lead candidates | – | – |
